Patent US8460669B2, “Compositions and methods for identifying response targets and treating flavivirus infection responses” (Academia Sinica, priority 2005, dated 2013)

Key:
Conditions in all cases: sugar 1 mg/ml
Dectin-1 = molecular target: T1, Dectin-1 (Homo sapiens, UniProt Q9BXN2); test: Sugar competition EIA, Fc.Dectin-1 binding to GLPS-F3
T1 construct: The extracellular domains of lectin receptors, TREMs and TLTs were cloned by the reverse-transcriptase polymerase chain reaction (RT-PCR); made in house; host or cells: 293-F (FreeStyle 293) cells
T1 sequence (Q9BXN2 66-247 limits assumed): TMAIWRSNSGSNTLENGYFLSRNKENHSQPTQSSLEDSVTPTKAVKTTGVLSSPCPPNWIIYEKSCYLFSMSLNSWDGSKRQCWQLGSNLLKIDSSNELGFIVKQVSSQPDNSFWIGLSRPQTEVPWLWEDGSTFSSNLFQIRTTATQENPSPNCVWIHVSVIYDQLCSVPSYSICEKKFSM
Protocol: (§1) The interaction between GLPS-F3 and receptor.Fc was then tested. Unbiotinylated GLPS-F3 was immobilized at 100 ng/well as described above, and 100 μL receptor.Fc fusion protein (1 μg/ml in 2 mM MgCl2/2 mM CaCl2/1% BSA/TBST) was added into each well and incubated for 1 hour at room temperature. After washing with TBST, wells were incubated with peroxidase-conjugated goat anti-human IgG Ab (1:5000 dilution, Jackson ImmunoResearch Laboratories) in blocking buffer at room temperature for 30 min. Wells were incubated with 100 μL TMB substrate for 15 min after TBST washing and read at 450 nm in a Fusion plate reader (Perkin Elmer). The results were normalized with respect to Fc.Dectin-1 binding (Dectin-1 is a known lectin receptor that binds to β-1,3-glucan which is the backbone found in GLPS-F3). FIG. 6B depicts in graphical form the affinity of each receptor for GLPS-F3 relative to Dectin-1. […] There was also weaker but positive GLPS-F3 binding ability (25-50% binding intensity compared to Fc.dectin-1) found in Fc.NKG2D, Fc.MINCLE, Fc.mKCR, DCAL1.Fc, DEC205.Fc, Endo180.Fc and NKp30(NCR3).Fc.
(§2) To understand the interaction of GLPS-F3 with specific innate immunity receptors, the polysaccharides mannan and β-glucan and the monosaccharides D-mannose (Man), D-glucose (Glc), N-acetyl-glucosamine (GlcNAc), D-galactose (Gal), N-acetyl-galactosamine (GalNAc), L-fucose (Fuc) and sialic acid, were used in a competition assay. […] The assays were carried out as in Example 9, with the addition of 1 mg/ml of each polysaccharide or monosaccharide.

Langerin = molecular target: T2, Langerin (Homo sapiens, UniProt Q9UJ71); test: Sugar competition EIA, Fc.Langerin binding to GLPS-F3
T2 construct: The extracellular domains of lectin receptors, TREMs and TLTs were cloned by the reverse-transcriptase polymerase chain reaction (RT-PCR); made in house; host or cells: 293-F (FreeStyle 293) cells
Protocol: as §1, §2

DC-SIGN = molecular target: T3, DC-SIGN (Homo sapiens, UniProt Q9NNX6); test: Sugar competition EIA, Fc.DC-SIGN binding to GLPS-F3
T3 construct: The extracellular domains of lectin receptors, TREMs and TLTs were cloned by the reverse-transcriptase polymerase chain reaction (RT-PCR); made in house; host or cells: 293-F (FreeStyle 293) cells
T3 sequence (Q9NNX6 59-404 limits assumed): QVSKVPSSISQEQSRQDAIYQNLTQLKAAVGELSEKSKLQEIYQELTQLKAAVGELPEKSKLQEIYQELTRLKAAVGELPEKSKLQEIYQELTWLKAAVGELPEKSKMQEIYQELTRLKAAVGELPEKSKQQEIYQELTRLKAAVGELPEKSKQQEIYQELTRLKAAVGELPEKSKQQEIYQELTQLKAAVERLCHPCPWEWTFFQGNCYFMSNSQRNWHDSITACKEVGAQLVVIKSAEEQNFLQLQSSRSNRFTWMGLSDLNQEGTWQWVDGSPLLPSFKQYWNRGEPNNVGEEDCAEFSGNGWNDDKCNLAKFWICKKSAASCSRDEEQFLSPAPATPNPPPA
Protocol: as §1, §2

TLR4.Fc = molecular target: T4, TLR4.Fc (Homo sapiens, UniProt O00206); test: Sugar competition EIA, TLR4.Fc binding to GLPS-F3
T4 construct: The extracellular domains of several innate immunity receptors from immune cells were cloned by reverse-transcription polymerase chain reaction (RT-PCR); made in house; host or cells: 293-F (FreeStyle 293) cells
Protocol: as §1, §2

MMR.Fc = molecular target: T5, MMR.Fc (Homo sapiens, UniProt P22897); test: Sugar competition EIA, MMR.Fc binding to GLPS-F3
T5 construct: The extracellular domains of lectin receptors, TREMs and TLTs were cloned by the reverse-transcriptase polymerase chain reaction (RT-PCR); made in house; host or cells: 293-F (FreeStyle 293) cells
T5 sequence (P22897 19-1389 limits assumed): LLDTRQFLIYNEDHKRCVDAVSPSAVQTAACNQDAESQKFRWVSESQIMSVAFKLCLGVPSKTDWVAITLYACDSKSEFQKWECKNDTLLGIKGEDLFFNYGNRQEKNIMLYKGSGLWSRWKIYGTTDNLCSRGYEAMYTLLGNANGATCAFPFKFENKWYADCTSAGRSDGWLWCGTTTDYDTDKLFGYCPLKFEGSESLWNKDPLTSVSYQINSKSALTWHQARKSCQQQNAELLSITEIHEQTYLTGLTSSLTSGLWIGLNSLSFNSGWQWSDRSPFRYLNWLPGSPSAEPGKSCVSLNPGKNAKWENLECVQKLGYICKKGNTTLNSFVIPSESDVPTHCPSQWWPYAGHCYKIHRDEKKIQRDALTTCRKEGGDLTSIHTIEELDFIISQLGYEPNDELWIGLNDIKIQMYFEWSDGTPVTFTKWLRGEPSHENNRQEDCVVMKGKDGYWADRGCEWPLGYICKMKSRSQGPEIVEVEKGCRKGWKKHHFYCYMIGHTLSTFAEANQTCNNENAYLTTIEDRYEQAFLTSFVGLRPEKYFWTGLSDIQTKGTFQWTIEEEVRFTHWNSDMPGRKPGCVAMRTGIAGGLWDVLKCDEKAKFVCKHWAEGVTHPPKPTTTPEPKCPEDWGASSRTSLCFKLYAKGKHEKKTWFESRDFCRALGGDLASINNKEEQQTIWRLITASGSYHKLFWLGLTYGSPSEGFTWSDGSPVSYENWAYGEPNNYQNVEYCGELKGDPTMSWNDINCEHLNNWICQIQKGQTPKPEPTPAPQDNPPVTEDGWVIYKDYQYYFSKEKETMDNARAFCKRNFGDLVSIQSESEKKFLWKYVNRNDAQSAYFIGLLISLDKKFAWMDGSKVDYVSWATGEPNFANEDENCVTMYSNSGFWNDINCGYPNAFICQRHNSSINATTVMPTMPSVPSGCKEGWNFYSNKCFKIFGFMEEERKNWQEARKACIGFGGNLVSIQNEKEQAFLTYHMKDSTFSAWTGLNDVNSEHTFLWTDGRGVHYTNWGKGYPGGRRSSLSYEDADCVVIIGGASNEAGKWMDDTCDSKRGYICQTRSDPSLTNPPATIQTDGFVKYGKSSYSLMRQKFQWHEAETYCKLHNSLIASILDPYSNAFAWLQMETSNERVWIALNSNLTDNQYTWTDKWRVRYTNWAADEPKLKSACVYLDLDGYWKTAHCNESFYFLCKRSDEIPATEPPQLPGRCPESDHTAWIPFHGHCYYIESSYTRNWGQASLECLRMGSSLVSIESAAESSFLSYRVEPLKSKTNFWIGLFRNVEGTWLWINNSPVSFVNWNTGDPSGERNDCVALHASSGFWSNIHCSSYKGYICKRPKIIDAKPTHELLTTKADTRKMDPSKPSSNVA
Protocol: as §1, §2

CLEC-2 = molecular target: T6, CLEC-2 (Homo sapiens, UniProt Q9P126); test: Sugar competition EIA, Fc.CLEC-2 binding to GLPS-F3
T6 construct: The extracellular domains of lectin receptors, TREMs and TLTs were cloned by the reverse-transcriptase polymerase chain reaction (RT-PCR); made in house; host or cells: 293-F (FreeStyle 293) cells
Protocol: as §1, §2

CLEC-6 = molecular target: T7, CLEC-6 (Homo sapiens, UniProt Q8WXI8); test: Sugar competition EIA, Fc.CLEC-6 binding to GLPS-F3
T7 construct: The extracellular domains of lectin receptors, TREMs and TLTs were cloned by the reverse-transcriptase polymerase chain reaction (RT-PCR); made in house; host or cells: 293-F (FreeStyle 293) cells
T7 sequence (Q8WXI8 39-215 limits assumed): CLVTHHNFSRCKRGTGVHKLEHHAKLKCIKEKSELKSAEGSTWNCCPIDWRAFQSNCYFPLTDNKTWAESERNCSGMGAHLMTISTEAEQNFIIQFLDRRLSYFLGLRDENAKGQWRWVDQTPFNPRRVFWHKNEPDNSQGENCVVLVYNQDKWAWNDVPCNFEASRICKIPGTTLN
Protocol: as §1, §2

T2 sequence (Q9UJ71 65-328 limits assumed): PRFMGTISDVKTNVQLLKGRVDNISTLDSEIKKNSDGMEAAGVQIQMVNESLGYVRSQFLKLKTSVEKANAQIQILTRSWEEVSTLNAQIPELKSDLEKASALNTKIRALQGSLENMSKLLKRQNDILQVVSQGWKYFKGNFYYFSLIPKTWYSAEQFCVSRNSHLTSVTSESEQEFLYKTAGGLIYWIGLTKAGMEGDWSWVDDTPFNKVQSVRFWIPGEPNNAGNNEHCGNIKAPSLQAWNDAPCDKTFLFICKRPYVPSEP
T6 sequence (Q9P126 55-229 limits assumed): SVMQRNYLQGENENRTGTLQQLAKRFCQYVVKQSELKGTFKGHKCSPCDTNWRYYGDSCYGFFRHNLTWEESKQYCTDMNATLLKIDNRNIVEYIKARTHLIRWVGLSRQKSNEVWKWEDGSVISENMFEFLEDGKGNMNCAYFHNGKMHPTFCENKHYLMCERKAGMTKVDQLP
T4 sequence (O00206 24-631 limits assumed): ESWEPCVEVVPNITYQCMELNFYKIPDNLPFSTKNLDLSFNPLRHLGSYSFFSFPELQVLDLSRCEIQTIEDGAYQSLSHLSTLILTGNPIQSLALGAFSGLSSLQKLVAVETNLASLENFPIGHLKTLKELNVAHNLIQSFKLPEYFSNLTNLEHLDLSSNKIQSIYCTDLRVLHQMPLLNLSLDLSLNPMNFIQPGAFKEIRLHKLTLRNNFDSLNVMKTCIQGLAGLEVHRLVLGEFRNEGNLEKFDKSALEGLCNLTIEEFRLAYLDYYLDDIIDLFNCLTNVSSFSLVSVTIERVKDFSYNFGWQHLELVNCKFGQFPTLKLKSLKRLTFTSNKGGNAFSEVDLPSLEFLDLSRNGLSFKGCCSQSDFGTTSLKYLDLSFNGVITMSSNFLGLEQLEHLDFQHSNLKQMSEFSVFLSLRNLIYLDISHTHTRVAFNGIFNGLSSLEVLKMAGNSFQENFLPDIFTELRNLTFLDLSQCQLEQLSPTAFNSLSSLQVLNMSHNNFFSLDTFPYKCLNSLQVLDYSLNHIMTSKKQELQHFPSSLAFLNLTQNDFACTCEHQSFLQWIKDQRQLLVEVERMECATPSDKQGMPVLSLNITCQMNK

Percentage of binding of Dectin-1 Fc fusion to GLPS-F3 relative to binding in absence of sugar competitor (Dectin-1): 17 ± 0.3% | inhibition of interaction between GLPS-F3 and Fc.Dectin-1 (Dectin-1): 83% | Percentage of binding of Langerin Fc fusion to GLPS-F3 relative to binding in absence of sugar competitor (Langerin): 5 ± 0.3% | inhibition of interaction between Fc.Langerin and GLPS-F3 (Langerin): 95% | Percentage of binding of DC-SIGN Fc fusion to GLPS-F3 relative to binding in absence of sugar competitor (DC-SIGN): 10 ± 1.0% | inhibition of binding of Fc.DC-SIGN to GLPS-F3 (DC-SIGN): 90% | Percentage of binding of TLR4.Fc to GLPS-F3 relative to binding in absence of sugar competitor (TLR4.Fc): 77 ± 3.1% | Percentage of binding of MMR.Fc to GLPS-F3 relative to binding in absence of sugar competitor (MMR.Fc): 7 ± 2.4% | inhibition of interaction between GLPS-F3 and MMR.Fc (MMR.Fc): 93% | Percentage of binding of CLEC-2 Fc fusion to GLPS-F3 relative to binding in absence of sugar competitor (CLEC-2): 45 ± 6.2% | inhibition of interaction of Fc.CLEC-2 to GLPS-F3 (CLEC-2): 55% | Percentage of binding of CLEC-6 Fc fusion to GLPS-F3 relative to binding in absence of sugar competitor (CLEC-6): 94 ± 13.0%
SMILES: CC(=O)N[C@H]1[C@H]([C@H](O)[C@H](O)CO)OC(O)(C(=O)O)C[C@@H]1O (stereo partly drawn) [sialic acid]
